Key:
[1] = Cytotoxicity against mouse BV-2 cells assessed as cell viability by MTT assay; assay type: cell-based; set-up: concentration or dose not given beside the values; details: read-out: Activity
BV-2 = assay: Anti-neuroinflammatory activity in mouse BV-2 cells assessed as inhibition of LPS-induced NO production incubated for 48 hrs by Griess reagent based assay; assay type: functional, cell-based; details: BV-2, 48 h

C=C(C)[C@@H]1CC[C@]2(C(=O)O)CC[C@]3(C)[C@H](C[C@H](O)[C@@H]4[C@@]5(C)CCC(=O)C(C)(C)[C@@H]5C[C@H](O)[C@]43C)[C@@H]12
viability [1]: 88.4%
IC50 (BV-2): > 100 µM

CC(=O)OC[C@H](C)[C@@H]1CC[C@]2(C(=O)O)CC[C@]3(C)[C@H](CC[C@@H]4[C@@]5(C)CCC(=O)C(C)(C)[C@@H]5C[C@H](O)[C@]43C)[C@@H]12
viability [1]: 99.5%
IC50 (BV-2): 61.2 µM

C=C(C)[C@@H]1CC[C@]2(C(=O)O)C[C@H](O)[C@]3(C)[C@H](CC[C@@H]4[C@@]5(C)CCC(=O)[C@@](C)(CO)[C@@H]5C[C@H](O)[C@]43C)[C@@H]12
viability [1]: 105%
IC50 (BV-2): 58.3 µM

C=C(C)[C@@H]1CC[C@]2(C(=O)O)CC[C@]3(C)[C@H](CC[C@@H]4[C@@]5(C)CCC(=O)C(C)(C)[C@@H]5C[C@H](OC(C)=O)[C@]43C)[C@@H]12
viability [1]: 102%
IC50 (BV-2): 10.3 µM

C=C(C)[C@@H]1C[C@@H](O)[C@]2(C(=O)O)CC[C@]3(C)[C@H](CC[C@@H]4[C@@]5(C)CCC(=O)C(C)(C)[C@@H]5C[C@H](O)[C@]43C)[C@@H]12
viability [1]: 101%
IC50 (BV-2): 37.2 µM

C=C(C)[C@@H]1CC[C@]2(C(=O)O)C[C@H](O)[C@]3(C)[C@H](C[C@@H](O)[C@@H]4[C@@]5(C)CCC(=O)C(C)(C)[C@@H]5CC[C@]43C)[C@@H]12
viability [1]: 103%
IC50 (BV-2): > 100 µM

C=C(C)[C@@H]1CC[C@]2(C(=O)O)C[C@H](O)[C@]3(C)[C@H](CC[C@@H]4[C@@]5(C)CCC(=O)[C@@](C)(COC(C)=O)[C@@H]5CC[C@]43C)[C@@H]12
viability [1]: 102%
IC50 (BV-2): 42.4 µM

CC(=O)OC[C@@H](C)[C@@H]1CC[C@]2(C(=O)O)CC[C@]3(C)[C@H](CC[C@@H]4[C@@]5(C)CCC(=O)C(C)(C)[C@@H]5C[C@H](O)[C@]43C)[C@@H]12
viability [1]: 98.8%
IC50 (BV-2): 66.3 µM

C=C(C)[C@@H]1CC[C@]2(C(=O)O[C@@H]3O[C@H](CO)[C@@H](O)[C@H](O)[C@H]3O)CC[C@]3(C)[C@H](CC[C@@H]4[C@@]5(C)CCC(=O)C(C)(C)[C@@H]5C[C@H](O)[C@]43C)[C@@H]12
viability [1]: 101%
IC50 (BV-2): 4.69 µM

C=C(CO)[C@@H]1CC[C@]2(C(=O)O)CC[C@]3(C)[C@H](CC[C@@H]4[C@@]5(C)CCC(=O)C(C)(C)[C@@H]5C[C@H](O)[C@]43C)[C@@H]12
viability [1]: 103%
IC50 (BV-2): 11.1 µM

C=C(C)[C@@H]1CC[C@]2(C(=O)O)CC[C@]3(C)[C@H](CC[C@@H]4[C@@]5(C)C[C@@H](O)C(=O)C(C)(C)[C@@H]5C[C@H](O)[C@]43C)[C@@H]12
viability [1]: 106%
IC50 (BV-2): 64.8 µM

CNC(=N)NCCC[C@H](N)C(=O)O [TILARGININE]
viability [1]: 110%
IC50 (BV-2): 21.4 µM

C=C(COO)[C@@H]1CC[C@]2(C(=O)O)CC[C@]3(C)[C@H](CC[C@@H]4[C@@]5(C)CCC(=O)C(C)(C)[C@@H]5CC[C@]43C)[C@@H]12
viability [1]: 101%
IC50 (BV-2): 24.8 µM

C=C(CO)[C@@H]1CC[C@]2(C(=O)O)CC[C@]3(C)[C@H](CC[C@@H]4[C@@]5(C)CCC(=O)C(C)(C)[C@@H]5CC[C@]43C)[C@@H]12
viability [1]: 104%
IC50 (BV-2): 35.1 µM

C=C(C)[C@@H]1CC[C@]2(C(=O)O)CC[C@]3(C)[C@H](CC[C@@H]4[C@@]5(C)CCC(=O)[C@@](C)(CO)[C@@H]5C[C@H](O)[C@]43C)[C@@H]12
viability [1]: 110%
IC50 (BV-2): 15.6 µM

C=C(C)[C@@H]1CC[C@]2(C(=O)O)C[C@H](O)[C@]3(C)[C@H](CC[C@@H]4[C@@]5(C)CCC(=O)C(C)(C)[C@@H]5C[C@H](O)[C@]43C)[C@@H]12
viability [1]: 101%
IC50 (BV-2): 93.7 µM

C=C(C)[C@@H]1CC[C@]2(C(=O)O)CC[C@]3(C)[C@H](CC[C@@H]4[C@@]5(C)CCC(=O)C(C)(C)[C@@H]5CC[C@]43C)[C@@H]12 [BETUNOLIC ACID]
viability [1]: 102%
IC50 (BV-2): 60.7 µM

C=C(C)[C@@H]1CC[C@]2(C(=O)O)CC[C@]3(C)[C@H](CC[C@@H]4[C@@]5(C)CCC(=O)C(C)(C)[C@@H]5C[C@H](O)[C@]43C)[C@@H]12
viability [1]: 99.2%
IC50 (BV-2): 34.6 µM

C=C(COC(C)=O)[C@@H]1CC[C@]2(C(=O)O)C[C@H](O)[C@]3(C)[C@H](CC[C@@H]4[C@@]5(C)CCC(=O)C(C)(C)[C@@H]5CC[C@]43C)[C@@H]12
viability [1]: 101%
IC50 (BV-2): 76.6 µM

CC(=O)[C@@H]1CC[C@]2(C(=O)O)CC[C@]3(C)[C@H](CC[C@@H]4[C@@]5(C)CCC(=O)C(C)(C)[C@@H]5C[C@H](O)[C@]43C)[C@@H]12
viability [1]: 106%
IC50 (BV-2): 53.9 µM

C=C(COC(C)=O)[C@@H]1CC[C@]2(C(=O)O)CC[C@]3(C)[C@H](CC[C@@H]4[C@@]5(C)CCC(=O)C(C)(C)[C@@H]5C[C@H](O)[C@]43C)[C@@H]12
viability [1]: 109%
IC50 (BV-2): 5.38 µM

C=C(C)[C@@H]1CC[C@]2(C(=O)O)CC[C@]3(C)[C@H](CC[C@@H]4[C@@]5(C)CC(=O)[C@H](O)C(C)(C)[C@@H]5C[C@H](O)[C@]43C)[C@@H]12
viability [1]: 97.3%
IC50 (BV-2): > 100 µM

C=C(C)[C@@H]1CC[C@]2(C(=O)O)CC[C@]3(C)[C@H](CC[C@@H]4[C@@]5(C)CCC(=O)[C@@](C)(COC(C)=O)[C@@H]5C[C@H](O)[C@]43C)[C@@H]12
viability [1]: 103%
IC50 (BV-2): 1.55 µM
